The values that follow come from BindingDB's records for doi:10.1016/j.chembiol.2014.09.011 (Astrazeneca R&D, 2014).

For orientation: IC50 means the midpoint of a concentration-inhibition curve. The low end stands for greater potency in that assay, the high end for weaker potency in that assay.

Holding throughout (test): AMPD Enzymatic Activity Assay
Holding throughout (conditions): pH 7.4

Assay [1] concerns the target T1, AMP deaminase 1 (Homo sapiens, UniProt P23109).
T1 sequence (P23109 whole entry): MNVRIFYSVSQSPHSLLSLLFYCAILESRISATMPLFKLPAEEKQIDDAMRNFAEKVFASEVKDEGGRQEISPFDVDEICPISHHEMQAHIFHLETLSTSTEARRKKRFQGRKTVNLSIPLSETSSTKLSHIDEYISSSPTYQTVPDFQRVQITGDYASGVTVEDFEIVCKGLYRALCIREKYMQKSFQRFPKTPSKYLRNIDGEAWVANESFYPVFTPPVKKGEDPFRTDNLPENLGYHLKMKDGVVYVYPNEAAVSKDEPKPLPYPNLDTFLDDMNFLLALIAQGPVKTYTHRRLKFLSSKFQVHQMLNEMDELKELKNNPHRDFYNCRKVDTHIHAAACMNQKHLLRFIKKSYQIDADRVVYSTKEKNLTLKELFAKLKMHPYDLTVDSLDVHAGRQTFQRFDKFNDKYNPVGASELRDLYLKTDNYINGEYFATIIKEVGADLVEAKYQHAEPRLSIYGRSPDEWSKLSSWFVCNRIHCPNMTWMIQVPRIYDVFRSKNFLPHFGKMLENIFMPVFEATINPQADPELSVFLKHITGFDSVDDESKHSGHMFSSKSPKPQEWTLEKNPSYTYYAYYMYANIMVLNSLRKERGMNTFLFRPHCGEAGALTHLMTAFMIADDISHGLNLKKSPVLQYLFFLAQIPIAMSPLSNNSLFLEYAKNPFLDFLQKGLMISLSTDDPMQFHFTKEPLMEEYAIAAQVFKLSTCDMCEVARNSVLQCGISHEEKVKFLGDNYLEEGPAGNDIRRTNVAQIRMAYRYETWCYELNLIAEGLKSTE
Here is the method: (§1) AMPD1 was added to buffer A (50 mM HEPES, 150 mM KCl, 5 mM MgCl2, and 0.5 mMglutathione [pH 7.4]) to a concentration of 10 nM. A substrate mix consistingof 2mMNADPH, 6mMa-ketoglutarate, 8mMAMP, and 15 U GDH was prepared in buffer A. Substrate mix ([…]) was added to the plate, followed by centrifugation and incubation for 1 hr. Detection was by absorbance at 340 nm following the conversion of NADPH to NADP+. Recombinant AMPD enzyme activity assays were performed in a 384-well format using the same conditions as described above, except the assay volume was […] and the AMP concentration for the AMPD2 assay was 8 mM. Different AMPD enzyme concentrations were used to have linear reactions: hAMPD1 (4 nM), hAMPD2 (38 nM), hAMPD3 (1 nM), rAMPD1 (116 nM), rAMPD2 (53 nM), rAMPD3 (31 nM), and mAMPD1 (816 nM).

Assay [2] concerns the target T2, AMP deaminase 1 (Mus musculus, UniProt Q3V1D3).
T2 sequence (Q3V1D3 whole entry): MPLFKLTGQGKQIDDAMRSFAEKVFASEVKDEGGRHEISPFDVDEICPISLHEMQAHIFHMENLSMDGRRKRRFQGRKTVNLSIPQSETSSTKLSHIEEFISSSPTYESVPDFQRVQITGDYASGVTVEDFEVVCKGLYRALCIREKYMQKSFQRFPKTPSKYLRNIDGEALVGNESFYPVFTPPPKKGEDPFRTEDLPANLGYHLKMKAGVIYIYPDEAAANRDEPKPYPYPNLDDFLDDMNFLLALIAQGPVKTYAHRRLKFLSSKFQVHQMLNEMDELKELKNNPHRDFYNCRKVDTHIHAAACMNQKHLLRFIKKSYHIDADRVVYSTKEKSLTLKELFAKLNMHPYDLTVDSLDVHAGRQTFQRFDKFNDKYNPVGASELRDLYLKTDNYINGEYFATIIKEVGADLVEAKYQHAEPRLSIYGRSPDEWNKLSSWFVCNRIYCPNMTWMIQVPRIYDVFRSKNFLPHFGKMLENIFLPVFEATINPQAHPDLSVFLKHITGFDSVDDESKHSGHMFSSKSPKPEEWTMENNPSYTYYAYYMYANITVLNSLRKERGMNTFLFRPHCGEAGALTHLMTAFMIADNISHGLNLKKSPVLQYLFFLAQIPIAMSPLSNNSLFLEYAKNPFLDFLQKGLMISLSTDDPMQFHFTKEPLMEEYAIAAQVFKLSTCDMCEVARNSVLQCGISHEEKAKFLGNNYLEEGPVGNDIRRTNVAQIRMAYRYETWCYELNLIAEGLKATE
Here is the method:
as §1

Assay [3] addresses T3, AMP deaminase 1 (Rattus norvegicus, UniProt P10759).
T3 sequence (P10759 whole entry): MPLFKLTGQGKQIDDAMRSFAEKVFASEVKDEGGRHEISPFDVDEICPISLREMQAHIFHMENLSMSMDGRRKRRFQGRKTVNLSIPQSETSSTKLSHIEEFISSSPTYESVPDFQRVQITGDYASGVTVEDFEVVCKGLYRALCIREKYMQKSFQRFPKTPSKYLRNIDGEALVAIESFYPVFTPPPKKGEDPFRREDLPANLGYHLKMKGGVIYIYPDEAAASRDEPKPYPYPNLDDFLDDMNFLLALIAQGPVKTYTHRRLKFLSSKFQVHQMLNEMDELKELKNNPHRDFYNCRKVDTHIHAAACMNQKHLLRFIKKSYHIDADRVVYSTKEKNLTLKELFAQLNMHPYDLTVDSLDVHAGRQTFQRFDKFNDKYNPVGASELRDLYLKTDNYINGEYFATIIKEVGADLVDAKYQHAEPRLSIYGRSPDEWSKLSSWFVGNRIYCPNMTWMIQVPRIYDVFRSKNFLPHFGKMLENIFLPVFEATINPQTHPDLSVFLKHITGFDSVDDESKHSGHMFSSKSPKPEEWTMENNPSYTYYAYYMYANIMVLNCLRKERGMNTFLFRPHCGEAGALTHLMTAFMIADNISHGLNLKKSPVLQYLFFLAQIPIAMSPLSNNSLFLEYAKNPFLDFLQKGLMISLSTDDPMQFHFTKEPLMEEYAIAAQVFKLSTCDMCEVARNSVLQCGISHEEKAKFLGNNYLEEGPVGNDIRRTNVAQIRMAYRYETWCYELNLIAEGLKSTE
Here is the method:
as §1

Another assay has as its target T4, AMP deaminase 2 (Rattus norvegicus, UniProt Q02356).
T4 sequence (Q02356 whole entry): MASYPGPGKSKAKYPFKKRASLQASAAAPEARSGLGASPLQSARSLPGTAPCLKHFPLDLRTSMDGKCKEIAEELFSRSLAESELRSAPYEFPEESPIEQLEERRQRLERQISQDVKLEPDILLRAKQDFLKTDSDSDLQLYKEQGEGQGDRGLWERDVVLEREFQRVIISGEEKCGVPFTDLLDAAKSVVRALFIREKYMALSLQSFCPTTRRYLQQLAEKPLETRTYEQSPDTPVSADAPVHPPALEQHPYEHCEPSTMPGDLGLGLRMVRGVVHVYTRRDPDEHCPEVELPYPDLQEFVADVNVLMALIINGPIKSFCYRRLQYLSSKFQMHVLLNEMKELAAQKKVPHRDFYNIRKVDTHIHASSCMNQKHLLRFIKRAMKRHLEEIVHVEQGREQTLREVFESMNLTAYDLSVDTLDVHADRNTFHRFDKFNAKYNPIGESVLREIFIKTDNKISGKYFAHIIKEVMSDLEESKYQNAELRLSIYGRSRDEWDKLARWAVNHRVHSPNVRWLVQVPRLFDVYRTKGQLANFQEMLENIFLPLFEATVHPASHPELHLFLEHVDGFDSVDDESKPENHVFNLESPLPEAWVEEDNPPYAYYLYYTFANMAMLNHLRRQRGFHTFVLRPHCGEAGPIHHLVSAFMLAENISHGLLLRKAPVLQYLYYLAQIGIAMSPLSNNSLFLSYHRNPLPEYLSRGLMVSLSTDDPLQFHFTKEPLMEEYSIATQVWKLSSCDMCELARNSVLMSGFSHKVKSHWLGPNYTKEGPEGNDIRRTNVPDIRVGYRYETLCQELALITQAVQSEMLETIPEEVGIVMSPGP
Here is the method:
as §1

Structures are written as SMILES.

For `C[C@@H](NCc1ccc(-c2ccc(C(=O)O)cn2)cc1)c1cccc2ccccc12` [6-[4-({[(1R)-1-(naphthalen-1-yl)ethyl]amino}methyl)phenyl]pyridine-3-carboxylic acid (Compound 1)], half-maximal inhibition against AMP deaminase 1 [1] (IC50) was put at 620 nM.
`COc1cc(-c2ccc(CN[C@H](C)c3cccc4ccncc34)cc2)ccc1C(=O)O` [4-[4-({[(1R)-1-(isoquinolin-8-yl)ethyl]amino}methyl)phenyl]-2-methoxybenzoic acid (Compound 4)]: the IC50 against AMP deaminase 1 [1] was 24 nM; against AMP deaminase 1 [2], 20 nM; on AMP deaminase 1 [3], 20 nM; on AMP deaminase 2 it was 300 nM.
